In patent US5030760A, “Tetrahydrophthalimides, and their production and use” (Sumitomo Chemical Company, Ltd., priority 1981, dated 1991):

Columns and labels:
hardstem bulrush = test: Test Example 6, paddy pot perfusion, herbicidal activity; format: in vivo, Scirpus juncoides; conditions: 2.5 g/are, 3 weeks, dry weight; further: ranges in brackets are in %
Protocol: (§1) The application of the tetrahydrophthalimides (I) as herbicides will be illustratively shown in the following Examples wherein the phytotoxicity to cultivated plants and the herbicidal activity on weeds were evaluated as follows: the aerial parts of the test plants were cut off and weighed (fresh weight); the percentage of the fresh weight of the treated plant to that of the untreated plant was calculated with the latter fresh weight taken as 100; and the crop damage and the herbicidal activity were evaluated by the standard given in the table below. The rating values of phytotoxicity, 0 and 1, and those of herbicidal effect, 5 and 4, are generally regarded as satisfactory to protect cultivated plants and control weeds, respectively. The rating values in the paddy field test alone were calculated from the dry weight of the test plants.
(§2) Wagner's pots (1/5000 are) were filled with paddy field soil containing the seeds of broad-leaved weeds (e.g. monochoria, false pimpernel, toothcup) and the seeds of barnyardgrass and hardstem bulrush, and water was poured therein until the depth of water became 4 cm. Rice seedlings of the 3.5-leaf stage and the tubers of arrowhead were transplanted therein and grown for 2 days in a greenhouse. A designed amount of the test compound formulated in an emulsifiable concentrate according to Preparation Example 2 was applied to the pots by perfusion. Thereafter, the test plants were grown for an additional 3 weeks in the greenhouse, and herbicidal activity and phytotoxicity were examined. In this treatment, the emulsifiable concentrate was dispersed in water for application at a perfusion volume of 10 liters per are.

morningglory = test: Test Example 4, pre-emergence treatment, herbicidal activity; format: in vivo; conditions: 20 days; further: ranges in brackets are in %
Protocol: as §1
(§3) Plastic beakers (diameter, 10 cm; height, 10 cm) were filled with upland field soil, and the seeds of corn, cotton and soybean and the seeds of morningglory, velvetleaf, Johnsongrass and green foxtail were separately sown in the beakers. A designed amount of the test compound was sprayed over the top by means of a small hand sprayer. After the spraying, the test plants were grown for 20 days in the greenhouse, and herbicidal activity and phytotoxicity were examined. In this pre-emergence treatment, the test compounds were formulated into an emulsifiable concentrate according to Preparation Example 2 and applied at a spray volume of 5 liters per are by dispersing it in water with the addition of a spreading agent.

prickly sida = test: Test Example 5, spraying over the top, herbicidal activity; format: in vivo, Sida spinosa; conditions: sprayed over the top, 20 days; further: ranges in brackets are in %
Protocol: as §1
(§4) Plastic trays (35 cm×25 cm×15 cm) were filled with upland field soil, and the seeds of tall morningglory, velvetleaf, jimsonweed, sicklepod, hemp sesbania, prickly side, Johnsongrass, green foxtail and large crabgrass and the seeds of soybean were sown therein. A designed amount of the test compound formulated into a wettable powder according to Preparation Example 1 and dispersed in water was sprayed over the top by means of a small hand sprayer at a spray volume of 5 liters per are. After the spraying, the test plants were grown in greenhouse for 20 days, and phytotoxicity and herbicidal activity were examined.

green foxtail [1] = test: Test Example 4, pre-emergence treatment, herbicidal activity; format: in vivo, Setaria viridis; conditions: 20 days; further: ranges in brackets are in %
Protocol: as §1, §3

green foxtail [2] = test: Test Example 5, spraying over the top, herbicidal activity; format: in vivo, Setaria viridis; conditions: sprayed over the top, 20 days; further: ranges in brackets are in %
Protocol: as §1, §4

velvetleaf [3] = test: as above; format: in vivo, Abutilon theophrasti; conditions: sprayed over the top, 20 days
Protocol: as §1, §4

Johnsongrass [4] = test: as above; format: in vivo, Sorghum halepense; conditions: sprayed over the top, 20 days
Protocol: as §1, §4

wild oat = test: Test Example 1, foliar treatment, herbicidal activity; format: in vivo, Avena fatua; conditions: 3 weeks; further: ranges in brackets are in %
Procedure, shortened: (§5)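 Plants were sown in upland soil and grown 2 weeks in a greenhouse, then sprayed on the foliage with the compound as an emulsifiable concentrate dispersed in water with a spreading agent (5 liters per are). After 3 further weeks, aerial fresh weight relative to untreated (taken as 100) was converted to a rating.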

velvetleaf [5] = test: Test Example 4, pre-emergence treatment, herbicidal activity; format: in vivo, Abutilon theophrasti; conditions: 20 days; further: ranges in brackets are in %
Protocol: as §1, §3

soybean [6] = test: Test Example 4, pre-emergence treatment, phytotoxicity to soybean; format: in vivo; conditions: 20 days; further: ranges in brackets are in %
Protocol: as §1, §3

rice plant = test: Test Example 6, paddy pot perfusion, phytotoxicity to rice plant; format: in vivo; conditions: 3 weeks, dry weight; further: ranges in brackets are in %
Protocol: as §1, §2

velvetleaf [7] = test: Test Example 1, foliar treatment, herbicidal activity; format: in vivo, Abutilon theophrasti; conditions: 3 weeks; further: ranges in brackets are in %
Procedure, shortened: as §5

soybean [8] = test: Test Example 5, spraying over the top, phytotoxicity to soybean; format: in vivo; conditions: sprayed over the top, 20 days; further: ranges in brackets are in %
Protocol: as §1, §4

barnyardgrass [9] = test: Test Example 6, paddy pot perfusion, herbicidal activity; format: in vivo, Echinochloa crus-galli; conditions: 3 weeks, dry weight; further: ranges in brackets are in %
Protocol: as §1, §2

Johnsongrass [10] = test: Test Example 4, pre-emergence treatment, herbicidal activity; format: in vivo, Sorghum halepense; conditions: 20 days; further: ranges in brackets are in %
Protocol: as §1, §3

jimsonweed = test: Test Example 5, spraying over the top, herbicidal activity; format: in vivo, Datura stramonium; conditions: sprayed over the top, 20 days; further: ranges in brackets are in %
Protocol: as §1, §4

hemp sesbania = test: as above; format: in vivo, Sesbania exaltator; conditions: sprayed over the top, 20 days; further: ranges in brackets are in %
Protocol: as §1, §4

corn [11] = test: Test Example 1, foliar treatment, phytotoxicity to corn; format: in vivo; conditions: 3 weeks; further: ranges in brackets are in %
Procedure, shortened: as §5

barnyardgrass [12] = test: Test Example 1, foliar treatment, herbicidal activity; format: in vivo, Echinochloa crus-galli; conditions: 3 weeks; further: ranges in brackets are in %
Procedure, shortened: as §5

tall morningglory = test: Test Example 5, spraying over the top, herbicidal activity; format: in vivo, Ipomoea purpurea; conditions: sprayed over the top, 20 days; further: ranges in brackets are in %
Protocol: as §1, §4

wild mustard = test: Test Example 1, foliar treatment, herbicidal activity; format: in vivo, Brassica kaber; conditions: 3 weeks
Procedure, shortened: as §5

arrowhead = test: Test Example 6, paddy pot perfusion, herbicidal activity; format: in vivo, Sagittaria pygmaea; conditions: 3 weeks, dry weight; further: ranges in brackets are in %
Protocol: as §1, §2

broad-leaved weed = test: as above; format: in vivo, monochoria, false pimpernel, toothcup; conditions: 3 weeks, dry weight; further: ranges in brackets are in %
Protocol: as §1, §2

corn [13] = test: Test Example 4, pre-emergence treatment, phytotoxicity to corn; format: in vivo; conditions: 20 days; further: ranges in brackets are in %
Protocol: as §1, §3

large crabgrass = test: Test Example 5, spraying over the top, herbicidal activity; format: in vivo, Digitaria sanguinalis; conditions: sprayed over the top, 20 days; further: ranges in brackets are in %
Protocol: as §1, §4

sicklepod = test: as above; format: in vivo, Cassia obtusifolia; conditions: sprayed over the top, 20 days; further: ranges in brackets are in %
Protocol: as §1, §4

cotton = test: Test Example 4, pre-emergence treatment, phytotoxicity to cotton; format: in vivo; conditions: 20 days; further: ranges in brackets are in %
Protocol: as §1, §3
Wherever Herbicidal activity, Velvetleaf is given: ranges in brackets are in %.

COc1cc(N2C(=O)C3=C(CCCC3)C2=O)c(F)cc1Cl [Compound No. 1]
Herbicidal activity, Hardstem bulrush (hardstem bulrush): 4 (1-10) | Herbicidal activity, Morningglory (morningglory; 2.5 g/are): 4 (1-10) | Herbicidal activity, Morningglory (morningglory; 10 g/are): 5 (0) | Herbicidal activity, Prickly sida (prickly sida; 3 g/are): 5 (0) | Herbicidal activity, Prickly sida (prickly sida; 9 g/are): 5 (0) | Herbicidal activity, Green foxtail (green foxtail [1]; 2.5 g/are): 4 (1-10) | Herbicidal activity, Green foxtail (green foxtail [1]; 10 g/are): 5 (0) | Herbicidal activity, Green foxtail (green foxtail [2]; 3 g/are): 5 (0) | Herbicidal activity, Green foxtail (green foxtail [2]; 9 g/are): 5 (0) | Herbicidal activity, Velvetleaf (velvetleaf [3]; 3 g/are): 5 (0) | Herbicidal activity, Velvetleaf (velvetleaf [3]; 9 g/are): 5 (0) | Herbicidal activity, Johnsongrass (Johnsongrass [4]; 3 g/are): 5 (0) | Herbicidal activity, Johnsongrass (Johnsongrass [4]; 9 g/are): 5 (0) | Herbicidal activity, Wild cat (wild oat; 1.25 g/are): 1 (41-60) | Herbicidal activity, Wild cat (wild oat; 5 g/are): 5 (0) | Herbicidal activity, Velvetleaf (velvetleaf [5]; 2.5 g/are): 5 (0) | Herbicidal activity, Velvetleaf (velvetleaf [5]; 10 g/are): 5 (0) | Phytotoxicity, Soybean (soybean [6]; 2.5 g/are): 0 (100) | Phytotoxicity, Soybean (soybean [6]; 10 g/are): 0 (100) | Phytotoxicity, Rice plant (rice plant; 1.25 g/are): 1 (90-99) | Phytotoxicity, Rice plant (rice plant; 2.5 g/are): 1 (90-99) | Herbicidal activity, Velvetleaf (velvetleaf [7]; 1.25 g/are): 5 (0) | Herbicidal activity, Velvetleaf (velvetleaf [7]; 5 g/are): 5 (0) | Phytotoxicity, Soybean (soybean [8]; 3 g/are): 0 (100) | Phytotoxicity, Soybean (soybean [8]; 9 g/are): 0 (100) | Herbicidal activity, Barnyardgrass (barnyardgrass [9]; 1.25 g/are): 4 (1-10) | Herbicidal activity, Barnyardgrass (barnyardgrass [9]; 2.5 g/are): 5 (0) | Herbicidal activity, Johnsongrass (Johnsongrass [10]; 2.5 g/are): 5 (0) | Herbicidal activity, Johnsongrass (Johnsongrass [10]; 10 g/are): 5 (0) | Herbicidal activity, Jimsonweed (jimsonweed; 3 g/are): 5 (0) | Herbicidal activity, Jimsonweed (jimsonweed; 9 g/are): 5 (0) | Herbicidal activity, Hemp sesbania (hemp sesbania; 3 g/are): 5 (0) | Herbicidal activity, Hemp sesbania (hemp sesbania; 9 g/are): 5 (0) | Phytotoxicity, Corn (corn [11]; 1.25 g/are): 0 (100) | Phytotoxicity, Corn (corn [11]; 5 g/are): 1 (90-99) | Herbicidal activity, Barnyardgrass (barnyardgrass [12]; 1.25 g/are): 1 (41-60) | Herbicidal activity, Barnyardgrass (barnyardgrass [12]; 5 g/are): 5 (0) | Herbicidal activity, Tall morningglory (tall morningglory; 3 g/are): 4 (1-10) | Herbicidal activity, Tall morningglory (tall morningglory; 9 g/are): 5 (0) | Herbicidal activity, Wild mustard (wild mustard; 1.25 g/are): 5 (0) | Herbicidal activity, Wild mustard (wild mustard; 5 g/are): 5 (0) | Herbicidal activity, Arrowhead (arrowhead; 1.25 g/are): 4 (1-10) | Herbicidal activity, Arrowhead (arrowhead; 2.5 g/are): 5 (0) | Herbicidal activity, Broad-leaved weed (broad-leaved weed; 1.25 g/are): 5 (0) | Herbicidal activity, Broad-leaved weed (broad-leaved weed; 2.5 g/are): 5 (0) | Phytotoxicity, Corn (corn [13]; 2.5 g/are): 1 (90-99) | Phytotoxicity, Corn (corn [13]; 10 g/are): 2 (80-89) | Herbicidal activity, Large crabgrass (large crabgrass; 3 g/are): 5 (0) | Herbicidal activity, Large crabgrass (large crabgrass; 9 g/are): 5 (0) | Herbicidal activity, Sicklepod (sicklepod; 3 g/are): 4 (1-10) | Herbicidal activity, Sicklepod (sicklepod; 9 g/are): 5 (0) | Phytotoxicity, Cotton (cotton; 2.5 g/are): 0 (100) | Phytotoxicity, Cotton (cotton; 10 g/are): 2 (80-89)
